Source: ChEMBL document CHEMBL5506010, “Butyrylcholinesterase-Activated Near-Infrared Fluorogenic Probe for In Vivo Theranostics of Alzheimer's Disease” (J Med Chem, 2024)
Calls of active or inactive are those of the source. The rule behind the calls is not given here.

How the values were obtained:
[1] = Stability of compound in PBS at pH 7.4 measured after 72 hrs by HPLC analysis; format: physicochemical; conditions: buffer, pH 7.4, 72 h
Cholinesterase [2] = biological target: T1, Cholinesterase (Homo sapiens, UniProt P06276); experiment: Binding affinity to BChE in human LN-229 cells at 10 uM incubated for 1 hrs by fluorescence based confocal laser scanning microscopic analysis; format: cell-based
T1 sequence (P06276 whole entry): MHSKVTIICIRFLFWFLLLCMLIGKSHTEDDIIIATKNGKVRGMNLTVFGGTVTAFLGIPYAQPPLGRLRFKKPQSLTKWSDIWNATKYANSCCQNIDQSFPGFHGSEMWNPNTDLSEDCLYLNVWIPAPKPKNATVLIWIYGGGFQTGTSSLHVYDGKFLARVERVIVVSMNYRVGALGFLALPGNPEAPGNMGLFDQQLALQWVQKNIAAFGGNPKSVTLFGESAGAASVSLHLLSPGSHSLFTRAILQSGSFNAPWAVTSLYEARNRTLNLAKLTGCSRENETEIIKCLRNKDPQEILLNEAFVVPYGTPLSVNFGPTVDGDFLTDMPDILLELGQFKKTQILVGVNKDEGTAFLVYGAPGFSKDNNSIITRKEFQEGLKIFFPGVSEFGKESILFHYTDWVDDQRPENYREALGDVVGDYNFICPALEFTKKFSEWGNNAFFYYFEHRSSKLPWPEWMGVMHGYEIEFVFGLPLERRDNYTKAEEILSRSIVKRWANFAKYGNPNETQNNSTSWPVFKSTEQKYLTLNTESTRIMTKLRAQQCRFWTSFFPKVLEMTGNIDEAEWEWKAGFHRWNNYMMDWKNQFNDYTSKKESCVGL

PC-12 [3] = experiment: Binding affinity to BChE in rat PC-12 cells at 10 uM incubated for 1 hrs by fluorescence based confocal laser scanning microscopic analysis; format: cell-based
PC-12 [4] = experiment: Binding affinity to BChE in rat PC-12 cells assessed as increase in fluorescence intensity incubated for 1 hrs by fluorescence based confocal laser scanning microscopic analysis; format: cell-based; conditions: dose 1-10 µM
PC-12 [5] = experiment: Binding affinity to BChE in rat PC-12 cells assessed as increase in fluorescence intensity preincubated with tacrine for 24 hrs followed by compound addition and measured after 1 hrs by fluorescence based confocal laser scanning microscopic analysis; format: cell-based
PC-12 [6] = experiment: Binding affinity to BChE in rat PC-12 cells assessed as increase in fluorescence intensity preincubated with S11-1014 for 24 hrs followed by compound addition and measured after 1 hrs by fluorescence based confocal laser scanning microscopic analysis; format: cell-based
[7] = Neurotoxicity in mouse HT-22 cells assessed as reduction in cell viability at 50 uM; format: toxicity, cell-based; conditions: ht-22, 50 µM
SH-SY5Y [8] = experiment: Neuroprotective activity against amyloid-beta (1 to 42)-induced human SH-SY5Y cells assessed as increase in ACh level in culture medium at 10 to 20 uM incubated for 24 hrs by ELISA; format: functional, cell-based; conditions: dose 10-20 µM
SH-SY5Y [9] = experiment: Neuroprotective activity against amyloid-beta (1 to 42)-induced human SH-SY5Y cells assessed as increase in ACh level in cell lysate at 10 to 20 uM incubated for 24 hrs by ELISA; format: functional, cell-based; conditions: dose 10-20 µM
SH-SY5Y [10] = experiment: Neuroprotective activity against amyloid-beta (1 to 42)-induced human SH-SY5Y cells assessed as decrease in amyloid beta (1 to 42) level in culture medium at 10 to 20 uM incubated for 24 hrs by ELISA; format: functional, cell-based; conditions: dose 10-20 µM
HT-22 [11] = experiment: Inhibition of H2O2-induced ROS release in mouse HT-22 cells assessed as decrease in green fluorescence at 1 to 10 uM preincubated for 1 hrs followed by H2O2 addition and measured after 24 hrs by DCFH-DA based confocal laser scanning microscopic analysis; format: functional, cell-based; conditions: dose 1-10 µM, time 25.0 hrs
HT-22 [12] = experiment: Inhibition of H2O2-induced ROS release in mouse HT-22 cells assessed as increase in red fluorescence at 1 to 10 uM preincubated for 1 hrs followed by H2O2 addition and measured after 24 hrs by DCFH-DA based confocal laser scanning microscopic analysis; format: functional, cell-based; conditions: dose 1-10 µM, time 25.0 hrs
[13] = Permeability of compound incubated for 18 hrs by PAMPA-BBB based UV plate spectroscopic reader analysis; format: ADME; conditions: read-out: permeability
[14] = Stability of compound at pH 12 measured within 3 mins by microplate reader analysis; format: physicochemical; conditions: buffer, pH 12, 0.05 h
[15] = Stability of compound in male ICR mouse brain at 100 uM, iv measured at 5 to 60 mins by fluorescence microplate reader; format: ADME, organism-based; conditions: time 5-60 min
[16] = Stability of compound in male ICR mouse plasma at 100 uM, iv measured after 30 mins by fluorescence microplate reader; format: ADME, organism-based; conditions: 0.5 h
[17] = Drug accumulation in brain of APP/PS1 transgenic AD-mouse model at 100 uM, iv measured at 5 to 60 mins by fluorescence imaging analysis; format: ADME, organism-based; conditions: in vivo, time 5-60 min
[18] = Drug accumulation in brain of APP/PS1 transgenic AD-mouse model at 100 uM, iv measured after 24 hrs […] by fluorescence imaging analysis; format: ADME, organism-based; conditions: in vivo
[19] = Drug uptake in brain of 6 weeks old AD-mouse model assessed as increase in fluorescence at 100 uM, iv by fluorescence scanning analysis; format: ADME, organism-based; conditions: in vivo
[20] = Drug uptake in wildtype mouse brain assessed as increase in fluorescence at 100 uM, iv preadministered with tacrine for 4 hrs followed by compound administration by fluorescence scanning analysis; format: ADME, organism-based; conditions: in vivo
[21] = Drug uptake in brain of 6 weeks old AD-mouse model assessed as increase in fluorescence at 100 uM, iv preadministered with tacrine for 4 hrs followed by compound administration by fluorescence scanning analysis; format: ADME, organism-based; conditions: in vivo
[22] = Drug uptake in brain of 8 months old AD-mouse model assessed as increase in fluorescence at 100 uM, iv preadministered with tacrine for 4 hrs followed by compound administration by fluorescence scanning analysis; format: ADME, organism-based; conditions: in vivo
Mus musculus [23] = experiment: Antialzheimer activity in APP/PS1 transgenic AD mouse model assessed as improvement in learning administered intravenously once every 2 days for 10 times followed by morris water maze training from day 21 to 25 and measured on day 26 by Morris water maze test; format: functional, organism-based; conditions: route iv, time 26.0 day
Mus musculus [24] = experiment: Antialzheimer activity in APP/PS1 transgenic AD mouse model assessed as increase in alteration performance administered intravenously once every 2 days for 10 times and measured on day 26 by Y maze test; format: functional, organism-based; conditions: route iv, time 26.0 day
Mus musculus [25] = experiment: Antialzheimer activity in APP/PS1 transgenic AD mouse model assessed as improvement in memory administered intravenously once every 2 days for 10 times and measured on day 26 by Y maze test; format: functional, organism-based; conditions: route iv, time 26.0 day
Mus musculus [26] = experiment: Antialzheimer activity in APP/PS1 transgenic AD mouse model assessed as increase in ACh level administered intravenously once every 2 days for 10 times and measured on day 30 by ELISA; format: functional, organism-based; conditions: route iv, time 30.0 day
Mus musculus [27] = experiment: Antialzheimer activity in APP/PS1 transgenic AD mouse model assessed as decrease in amyloid beta (1 to 42) level administered intravenously once every 2 days for 10 times and measured on day 30 by ELISA; format: functional, organism-based; conditions: route iv, time 30.0 day
[28] = Toxicity in APP/PS1 transgenic AD mouse model assessed as liver damage administered intravenously once every 2 days for 10 times and measured on day 30 by H and E staining based analysis; format: tissue-based; conditions: in vivo, iv, 720 h, time 30 day
[29] = Toxicity in APP/PS1 transgenic AD mouse model assessed as spleen damage administered intravenously once every 2 days for 10 times and measured on day 30 by H and E staining based analysis; format: tissue-based; conditions: in vivo, iv, 720 h, time 30 day
Cholinesterase [30] = biological target: T1, Cholinesterase; experiment: Binding affinity to BChE (unknown origin) in PBS assessed as […] at 680 nm by UV/vis absorption analysis
Cholinesterase [31] = biological target: T1, Cholinesterase; experiment: Binding affinity to BChE (unknown origin) in PBS assessed as maximum emission wavelength at 710 nm by fluorescence spectra analysis
Cholinesterase [32] = biological target: T1, Cholinesterase; experiment: Binding affinity to BChE (unknown origin) in PBS assessed as fold change in fluorescence intensity at 710 nm by fluorescence spectra analysis
Homo sapiens [33] = organism: Homo sapiens; experiment: Binding affinity to ALP (unknown origin) by fluorescence analysis
Homo sapiens [34] = organism: Homo sapiens; experiment: Binding affinity to carboxylesterase (unknown origin) by fluorescence analysis
Homo sapiens [35] = organism: Homo sapiens; experiment: Binding affinity to lysozyme (unknown origin) by fluorescence analysis
Cholinesterase [36] = biological target: T1, Cholinesterase; experiment: Binding affinity to BChE (unknown origin) assessed as enzyme mediated compound hydrolysis measured after 1 min by HPLC analysis relative to control; set-up: scale not given: the % may be the effect or the level left
Cholinesterase [37] = biological target: T1, Cholinesterase; experiment: Binding affinity to BChE (unknown origin) assessed as enzyme mediated compound hydrolysis measured after 5 min by HPLC analysis relative to control; set-up: scale not given: the % may be the effect or the level left

In the case of CCN(CC)Cc1ccccc1CNC(=O)c1cccc(NC(=O)c2cccc(C(=O)NCCn3cc(CCC[N+]4=C(/C=C/C5=C6Oc7cc(OC(=O)C8CC8)ccc7C=C6CCC5)C(C)(C)c5ccccc54)nn3)c2)c1.[I-], the Stability [1] was “Stable”, the Activity (Cholinesterase [2]) was “Active” and the Activity (PC-12 [3]) was “Active”. The Activity (PC-12 [4]) was “Dose-Dependent Effect”, the Activity (PC-12 [5]) was “inactive” and the Activity (PC-12 [6]) was “inactive”. The Activity [7] was “Non-Toxic”, the Activity (SH-SY5Y [8]) was “Active” and the Activity (SH-SY5Y [9]) was “Active”. For the same compound, the Activity (SH-SY5Y [10]) was “Active”, the inhibition (HT-22 [11]) was “Active” and the inhibition (HT-22 [12]) was “Active”. For the same compound, the Papp at 18 h [13] was 15.5 ×10⁻⁶ cm/s, the Stability [14] was “Unstable” and the Stability [15] was “Stable”. For the same compound, the Stability [16] was “Stable”, the Drug uptake [17] was “Active” and the Drug uptake [18] was “Not Active”. The Drug uptake [19] was “Active”, the Drug uptake [20] was “Not Active” and the Drug uptake [21] was “Not Active”. For the same compound, the Drug uptake [22] was “Not Active”, the Activity (Mus musculus [23]) was “Active” and the Activity (Mus musculus [24]) was “Active”. The Activity (Mus musculus [25]) was “inactive”, the Activity (Mus musculus [26]) was “Active” and the Activity (Mus musculus [27]) was “Active”. The Activity [28] was “Non-Toxic”, the Activity [29] was “Non-Toxic” and the Activity (Cholinesterase [30]) was “Active”. The Activity (Cholinesterase [31]) was “Active”, the fold change (FC) (Cholinesterase [32]) was 24 and the Activity (Homo sapiens [33]) was “inactive”. For the same compound, the Activity (Homo sapiens [34]) was “inactive”, the Activity (Homo sapiens [35]) was “inactive” and the Activity (Cholinesterase [36]) was 50%. It also gave an Activity (Cholinesterase [37]) greater than 90%.
